{"source": "ChEMBL document CHEMBL6078646", "about": "“Target Ligand Separation and Identification of Isoforsythiaside as a Histone Lysine-Specific Demethylase 1 Covalent Inhibitor Against Breast Cancer Metastasis” (J Med Chem, 2024)", "key": {"[1]": {"target": "T1, Lysine-specific histone demethylase 1A (Homo sapiens, UniProt O60341)", "experiment": "Inhibition of recombinant His-tagged LSD1 (157 to 852 residues) (unknown origin) expressed in Escherichia coli BL21 (DE3) cells using H3K4me2 peptide as substrate incubated for 30 mins by fluorescence microplate reader analysis"}, "[2]": {"experiment": "Tmax in male Sprague-Dawley rat at 10 mg/kg, ip measured at 0 to 1440 mins by LC-MS/MS analysis", "type": "ADME, organism-based", "details": "in vivo, time 0-1440 min"}, "[3]": {"experiment": "Toxicity in female Balb/c mouse assessed as effect on RBC level at 50 mg/kg, ip administered every other day for 7 times", "type": "organism-based", "details": "in vivo"}, "[4]": {"experiment": "Toxicity in female Balb/c mouse assessed as effect on ALT level at 50 mg/kg, ip administered every other day for 7 times", "type": "organism-based", "details": "in vivo"}, "[5]": {"experiment": "Toxicity in female Balb/c mouse assessed as effect on AST level at 50 mg/kg, ip administered every other day for 7 times", "type": "organism-based", "details": "in vivo"}, "[6]": {"experiment": "Toxicity in female Balb/c mouse assessed as effect on LDH level at 50 mg/kg, ip administered every other day for 7 times", "type": "organism-based", "details": "in vivo"}, "[7]": {"experiment": "Toxicity in female Balb/c mouse assessed as effect on creatine kinase level at 50 mg/kg, ip administered every other day for 7 times", "type": "organism-based", "details": "in vivo"}, "[8]": {"experiment": "Toxicity in female Balb/c mouse assessed as histological changes in heart at 50 mg/kg, ip administered every other day for 7 times by H and E staining based analysis", "type": "organism-based", "details": "in vivo"}, "[9]": {"experiment": "Toxicity in female Balb/c mouse assessed as histological changes in liver at 50 mg/kg, ip administered every other day for 7 times by H and E staining based analysis", "type": "organism-based", "details": "in vivo"}, "[10]": {"experiment": "Toxicity in female Balb/c mouse assessed as histological changes in kidney at 50 mg/kg, ip administered every other day for 7 times by H and E staining based analysis", "type": "organism-based", "details": "in vivo"}, "[11]": {"experiment": "Acute toxicity in female ICR mouse assessed as lethal dose administered intraperitoneally for 14 days", "details": "in vivo, route ip, time 14 day"}, "MDA-MB-231 [12]": {"system": "MDA-MB-231", "experiment": "Inhibition of epithelial to mesenchymal transition in human MDA-MB-231 cells assessed as upregulation of E-cadherin protein expression by Western blotting analysis", "type": "functional, cell-based", "details": "dose 0-32 µM"}, "MDA-MB-231 [13]": {"system": "MDA-MB-231", "experiment": "Antimetastatic activity against human MDA-MB-231 cells expressing luciferase xenografted in female Balb/c nude mouse assessed as reduction in fluorescence intensity in lungs at 12 mg/kg, ip administered every 3 days and measured on day 15 by bioluminescence imaging analysis relative to control", "type": "functional", "design": "scale not given: the % may be the effect or the level left", "details": "time 15 day"}, "MDA-MB-231 [14]": {"system": "MDA-MB-231", "experiment": "Antimetastatic activity against human MDA-MB-231 cells expressing luciferase xenografted in female Balb/c nude mouse assessed as reduction in fluorescence intensity in lungs at 25 mg/kg, ip administered every 3 days and measured on day 15 by bioluminescence imaging analysis relative to control", "type": "functional", "design": "scale not given: the % may be the effect or the level left", "details": "time 15 day"}, "MDA-MB-231 [15]": {"system": "MDA-MB-231", "experiment": "Antimetastatic activity against human MDA-MB-231 cells expressing luciferase xenografted in female Balb/c nude mouse assessed as reduction in number of metastatic nodules in the lung at 50 mg/kg, ip administered every 3 days and measured after 30 days by H and E staining based histopathological analysis relative to control", "type": "functional", "design": "scale not given: the % may be the effect or the level left", "details": "time 30 day"}, "MDA-MB-231 [16]": {"system": "MDA-MB-231", "experiment": "Antimetastatic activity against human MDA-MB-231-Luc cells xenografted in female Balb/c nude mouse assessed as smaller metastatic nodules in lung at 12 to 50 mg/kg, ip administered every 3 days and measured after 30 days by H and E staining based analysis", "type": "functional, organism-based", "details": "dose 12-50 mg/kg, time 30.0 day"}, "[17]": {"experiment": "Toxicity in female Balb/c nude mouse xenografted with human MDA-MB-231 cells expressing luciferase assessed as abnormalities heart at 12 to 50 mg/kg, ip administered every 3 days and measured after 30 days by H and E staining based analysis", "type": "organism-based", "details": "in vivo, 720 h, dose 12-50 mg/kg, time 30 day"}, "[18]": {"target": "T1, Lysine-specific histone demethylase 1A", "experiment": "Binding affinity to LSD1 (unknown origin) assessed as dissociation constant by Microscale thermophoresis assay"}, "[19]": {"target": "T1, Lysine-specific histone demethylase 1A", "experiment": "Binding affinity to LSD1 (unknown origin) assessed as thermal stability preincubated for 30 mins followed by incubation under 37 to 52 degreeC for 5 mins by CETSA", "details": "time 35.0 min"}, "[20]": {"target": "T1, Lysine-specific histone demethylase 1A", "experiment": "Inhibition of LSD1 in human MDA-MB-231 cells assessed as increase in H3K4me2 accumulation by Western blotting analysis", "type": "cell-based", "details": "dose 0-32 µM"}, "MDA-MB-231 [21]": {"system": "MDA-MB-231", "experiment": "Effect on H3K4me2 protein expression in LSD1 knockout human MDA-MB-231 cells at 16 uM by Western blot analysis", "type": "functional, cell-based"}, "MDA-MB-231 [22]": {"system": "MDA-MB-231", "experiment": "Effect on E-cadherin protein expression in LSD1 knockout human MDA-MB-231 cells at 16 uM by Western blot analysis", "type": "functional, cell-based"}, "Homo sapiens [23]": {"species_on_record": "Homo sapiens", "experiment": "Inhibition of recombinant LSD1 Ser817A mutant (unknown origin)"}, "Homo sapiens [24]": {"species_on_record": "Homo sapiens", "experiment": "Binding affinity to recombinant LSD1 Ser817A mutant (unknown origin) by MST assay"}, "Homo sapiens [25]": {"species_on_record": "Homo sapiens", "experiment": "Binding affinity to recombinant LSD1 Ser817A mutant (unknown origin) assessed as thermal stability at 50 uM preincubated for 30 mins followed by incubation under 37 to 52 degreeC for 5 mins by CETSA", "details": "time 35.0 min"}, "Homo sapiens [26]": {"species_on_record": "Homo sapiens", "experiment": "Effect on LSD1/CoREST/HDAC1/HDAC2 (unknown origin) complex by coimmunoprecipitation analysis"}, "MDA-MB-231 [27]": {"system": "MDA-MB-231", "experiment": "Induction of LSD1 degradation in human MDA-MB-231 cells incubated for 12 hrs by Western blotting analysis", "type": "cell-based"}, "MDA-MB-231 [28]": {"system": "MDA-MB-231", "experiment": "Upregulation of RBMS3 mRNA level in human MDA-MB-231 cells by qRT-PCR analysis", "type": "functional, cell-based", "details": "dose 4-32 µM"}, "[29]": {"experiment": "Toxicity in female Balb/c nude mouse xenografted with human MDA-MB-231 cells expressing luciferase assessed as appearance of liver lesions at 12 to 50 mg/kg, ip administered every 3 days and measured after 30 days by H and E staining based analysis", "type": "organism-based", "details": "in vivo, 720 h, dose 12-50 mg/kg, time 30 day"}, "[30]": {"experiment": "Toxicity in female Balb/c nude mouse xenografted with human MDA-MB-231 cells expressing luciferase assessed as appearance of spleen lesions at 12 to 50 mg/kg, ip administered every 3 days and measured after 30 days by H and E staining based analysis", "type": "organism-based", "details": "in vivo, 720 h, dose 12-50 mg/kg, time 30 day"}, "[31]": {"experiment": "Toxicity in female Balb/c nude mouse xenografted with human MDA-MB-231 cells expressing luciferase assessed as appearance of kidney lesions at 12 to 50 mg/kg, ip administered every 3 days and measured after 30 days by H and E staining based analysis", "type": "organism-based", "details": "in vivo, 720 h, dose 12-50 mg/kg, time 30 day"}, "[32]": {"target": "T1, Lysine-specific histone demethylase 1A", "experiment": "Non-competitive inhibition of LSD1 (unknown origin) in presence of FAD by Lineweaver-Burk plot analysis"}, "MDA-MB-231 [33]": {"system": "MDA-MB-231", "experiment": "Upregulation of H3K4me2 protein expression in human MDA-MB-231 cells by Western blot analysis", "type": "functional, cell-based", "details": "dose 4-32 µM"}, "MDA-MB-231 [34]": {"system": "MDA-MB-231", "experiment": "Effect on LSD1 protein expression in human MDA-MB-231 cells at 4 to 32 uM by Western blot analysis", "type": "functional, cell-based", "details": "dose 4-32 µM"}, "[35]": {"target": "T1, Lysine-specific histone demethylase 1A", "experiment": "Binding affinity to recombinant LSD1 (unknown origin) at S817 residue by LC-MS/MS analysis"}, "MDA-MB-231 [36]": {"system": "MDA-MB-231", "experiment": "Induction of LSD1 degradation in human MDA-MB-231 cells at 4 to 32 uM in presence of MG132 by Western blot analysis", "type": "cell-based", "details": "dose 4-32 µM"}, "MDA-MB-231 [37]": {"system": "MDA-MB-231", "experiment": "Upregulation of RBMS3 promoter level in human MDA-MB-231 cells by chromatin immunoprecipitation assay", "type": "functional, cell-based"}}, "note": "pIC50, pKd: −log10 of the molar value. The source made the active and inactive calls. No cut-off for these calls is given here.", "data": [{"molecule": "C[C@@H]1O[C@H](OC[C@H]2O[C@@H](OCCc3ccc(O)c(O)c3)[C@H](O)[C@@H](OC(=O)/C=C/c3ccc(O)c(O)c3)[C@@H]2O)[C@H](O)[C@H](O)[C@H]1O", "values": [{"measurement": "pIC50", "setting": "[1]", "result": 5.80}, {"measurement": "Tmax", "setting": "[2]", "result": 1.33, "unit": "h"}, {"measurement": "Activity", "setting": "[3]", "result": "Non-toxic"}, {"measurement": "Activity", "setting": "[4]", "result": "Non-toxic"}, {"measurement": "Activity", "setting": "[5]", "result": "Non-toxic"}, {"measurement": "Activity", "setting": "[6]", "result": "Non-toxic"}, {"measurement": "Activity", "setting": "[7]", "result": "Non-toxic"}, {"measurement": "Activity", "setting": "[8]", "result": "Non-toxic"}, {"measurement": "Activity", "setting": "[9]", "result": "Non-toxic"}, {"measurement": "Activity", "setting": "[10]", "result": "Non-toxic"}, {"measurement": "LD50 at 336 h", "setting": "[11]", "result": "> 600", "unit": "mg/kg"}, {"measurement": "inhibition", "setting": "MDA-MB-231 [12]", "result": "Dose-dependent-effect"}, {"measurement": "Activity", "setting": "MDA-MB-231 [13]", "result": 32.9, "unit": "%"}, {"measurement": "Activity", "setting": "MDA-MB-231 [14]", "result": 46.4, "unit": "%"}, {"measurement": "Activity", "setting": "MDA-MB-231 [15]", "result": 52.5, "unit": "%"}, {"measurement": "Activity", "setting": "MDA-MB-231 [16]", "result": "Active"}, {"measurement": "Activity", "setting": "[17]", "result": "Non-toxic"}, {"measurement": "pKd", "setting": "[18]", "result": 5.28}, {"measurement": "Activity", "setting": "[19]", "result": "Active"}, {"measurement": "inhibition", "setting": "[20]", "result": "Dose-dependent-effect"}, {"measurement": "Activity", "setting": "MDA-MB-231 [21]", "result": "inactive"}, {"measurement": "Activity", "setting": "MDA-MB-231 [22]", "result": "inactive"}, {"measurement": "inhibition", "setting": "Homo sapiens [23]", "result": "inactive"}, {"measurement": "Activity", "setting": "Homo sapiens [24]", "result": "inactive"}, {"measurement": "Activity", "setting": "Homo sapiens [25]", "result": "inactive"}, {"measurement": "Activity", "setting": "Homo sapiens [26]", "result": "inactive"}, {"measurement": "Activity", "setting": "MDA-MB-231 [27]", "result": "Active"}, {"measurement": "Activity", "setting": "MDA-MB-231 [28]", "result": "Dose-dependent-effect"}, {"measurement": "Activity", "setting": "[29]", "result": "Non-toxic"}, {"measurement": "Activity", "setting": "[30]", "result": "Non-toxic"}, {"measurement": "Activity", "setting": "[31]", "result": "Non-toxic"}, {"measurement": "inhibition", "setting": "[32]", "result": "Active"}, {"measurement": "Activity", "setting": "MDA-MB-231 [33]", "result": "Dose-dependent-effect"}, {"measurement": "Activity", "setting": "MDA-MB-231 [34]", "result": "inactive"}, {"measurement": "Activity", "setting": "[35]", "result": "Active"}, {"measurement": "Activity", "setting": "MDA-MB-231 [36]", "result": "inactive"}, {"measurement": "Activity", "setting": "MDA-MB-231 [37]", "result": "Active"}]}]}
